Measurements: US20250243520A1, “PRODUCTION METHOD FOR L-CYCLIC AMINO ACIDS” (UBE CORPORATION, priority 2019, published 2025)
Like-named read-outs stand apart in the source and are kept apart here.

How the values were obtained:
[1] = test system: Morus alba imino acid (imine) reductase MaP2CR, GST-fused, SEQ ID NO: 10 (MaP2CR: SEQ ID NO: 4); experiment: Analysis of enzymatic catalytic activity: reduction of PipC2 with varied NADPH, absorbance at 340 nm (MaP2CR); format: biochemical
[2] = biological target: T1, Pseudomonas putida PipC2 reductase dpkA (Pseudomonas putida, UniProt Q5FB93); parameters: NADP Vmax: unit not given here; settings: cited from earlier work
[3] = biological target: T1, Pseudomonas putida PipC2 reductase dpkA; experiment: Literature kinetics of PipC2 reductase dpkA (Muramatsu et al., 2005); format: biochemical; settings: Table 5; literature value; molecular weight 35954
[4] = test system: Lathyrus japonicus imino acid (imine) reductase LjP2CR, GST-fused, SEQ ID NO: 12 (LjP2CR: SEQ ID NO: 6); experiment: Analysis of enzymatic catalytic activity: reduction of PipC2 with varied NADPH, absorbance at 340 nm (LjP2CR); format: biochemical
[5] = Enzyme reaction with PipC2 enzyme synthesis solution and *NADPH; products analysed by LCMS and chiral HPLC; format: biochemical; settings: 10 mM *NADPH, 30° C., 120 minutes
Procedure: An enzyme reaction was carried out using each enzyme solution (purified P2CR recombinant enzyme solution) obtained in Example 1. The reaction was carried out using a 1.5 mL Eppendorf tube as the reaction vessel, and using each enzyme reaction solution in a volume of 100 μL. Since PipC2 which serves as the substrate is not commercially available, one obtained from L-lysine by enzyme synthesis, using the aminotransferase MaALDI obtained in Reference Example 1 to be described later, was used.
The enzyme reaction was carried out using a shaking incubator (manufactured by AS ONE Corporation), at a reaction temperature of 30° C. with shaking at 1,000 rpm. The reaction time was set to 120 minutes. Heating was performed at a reaction temperature of 98° C. for five minutes to inactivate the enzyme, and the reaction was terminated. Subsequently, the reaction solution was centrifuged at 15,000 rpm at room temperature for 10 minutes, and the resulting supernatant was used as a PipC2 enzyme synthesis solution.
Thereafter, the reaction was carried out under the same conditions as the reaction using the enzyme MaALDI described above, to obtain an enzyme reaction product.
Each of the enzyme reaction products was analyzed by liquid chromatography-mass spectrometry (LCMS). First, each sample (enzyme reaction product) was subjected to a derivatization treatment. Using AccQ·Tag Ultra Derivatization Kit (manufactured by Waters Corporation), a mixture of each sample was prepared according to the composition shown in Table 3. The derivatizating reagent solution was added at last. After mixing, the mixture was incubated at 55° C. for 10 minutes.
Each sample which had been subjected to the derivatization treatment was diluted two-fold with pure water, and used as a sample for LCMS analysis.
When the activities of the enzyme reaction products were analyzed by LCMS analysis, it was confirmed that the products had the same retention time as that of L-PipA as the standard, and that novel peaks of the MS pattern were observed. Further, it was unable to detect PipA in the control. […]

[6] = Table 5, values determined by ANEMONA, GST-fused protein
[7] = Table 5, values determined by ANEMONA, GST-fused protein, read-out: NADP Km

T1 sequence (Q5FB93 whole entry): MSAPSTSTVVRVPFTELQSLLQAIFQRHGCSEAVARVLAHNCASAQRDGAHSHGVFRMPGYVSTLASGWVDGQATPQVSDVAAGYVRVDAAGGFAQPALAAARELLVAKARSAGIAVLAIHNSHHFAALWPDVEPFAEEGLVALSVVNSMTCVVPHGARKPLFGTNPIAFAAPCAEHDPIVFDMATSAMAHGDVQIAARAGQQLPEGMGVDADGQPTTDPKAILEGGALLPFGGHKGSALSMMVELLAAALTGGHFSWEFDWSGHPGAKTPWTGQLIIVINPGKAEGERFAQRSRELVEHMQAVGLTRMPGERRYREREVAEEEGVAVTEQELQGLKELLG

With NC(=O)C1=CN([C@@H]2O[C@H](COP(=O)(O)OP(=O)(O)OC[C@H]3O[C@@H](n4cnc5c(N)ncnc54)[C@H](OP(=O)(O)O)[C@@H]3O)[C@@H](O)[C@H]2O)C=CC1 [NADPH, reduced nicotinamide adenine dinucleotide phosphate] the Vmax ([1]; Hanes-Woolf plot, NADPH 0.5-80 μM, Tris-HCl pH 7.2) was 24.00 nmol/min/mg, the Km ([1]; Hanes-Woolf plot, NADPH 0.5-80 μM, Tris-HCl pH 7.2, read-out: Km) was 6.16 µM and the “Activity per one molecule of enzyme kcat” value ([1]; Table 5, GST-fused protein, molecular weight 61792) was 0.0217 s⁻¹. For the same molecule, the “NADP Vmax” value [1, 6] was 21, the Km [1, 7] was 3.6 µM and the Vmax ([1]; nonlinear regression by ANEMONA, NADPH 0.5-80 μM, Tris-HCl pH 7.2) was 21.2 nmol/min/mg. For the same molecule, the Km ([1]; nonlinear regression by ANEMONA, NADPH 0.5-80 μM, Tris-HCl pH 7.2, read-out: Km) was 3.57 µM, the Vmax ([2]; Muramatsu et al. 2005) was 220 nmol/min/mg and the Km ([2]; Muramatsu et al. 2005, read-out: Km) was 140 µM. For the same molecule, the “NADP Vmax” value ([2]; Table 5, literature value) was 220, the Km ([2]; Table 5, literature value, read-out: NADP Km) was 140 µM and the “Activity per one molecule of enzyme kcat” value [3] was 0.132 s⁻¹. The Vmax ([4]; Hanes-Woolf plot, NADPH 10-500 μM, Tris-HCl pH 7.2) was 199.55 nmol/min/mg, the Km ([4]; Hanes-Woolf plot, NADPH 10-500 μM, Tris-HCl pH 7.2, read-out: Km) was 170 µM and the “Activity per one molecule of enzyme kcat” value ([4]; Table 5, GST-fused protein, molecular weight 63449) was 0.198 s⁻¹. The “NADP Vmax” value [4, 6] was 187, the Km [4, 7] was 155 µM and the Vmax ([4]; nonlinear regression by ANEMONA, NADPH 10-500 μM, Tris-HCl pH 7.2) was 187.3 nmol/min/mg. The Km ([4]; nonlinear regression by ANEMONA, NADPH 10-500 μM, Tris-HCl pH 7.2, read-out: Km) was 155 µM.

B1: MaP2CR: imino acid reductase derived from Morus alba, SEQ ID NO: 4; GST-fused form SEQ ID NO: 10 (protein, listed as Morus alba)
chain: MASTTTAITSPIFITTQSFHTILSRQTLMDHFHSSLPTVSASLSTPLRQNHAVSPTSSLLLMPSWSTSPSLPYIGVKLVTYFPQSSTLSLPGIHASYVLFSSATGQTLASMDGTALTLFRTSCVSGLASRILARDDSKVLVMIGAGALAPHLIKAHLTARPGLERVVIWNRTVEKARNLAEQLQQSSGLDGVCFESNGCLEEVVGMGDIVSCATNSEAPLVKGQKLKPGAHLDLVGSFKHSMRECDDEAIQRGRIFVDNEAALVEAGELVGAFERGVITKEDIGGNLVELIMGEKVGRRDSEEVTVFKSVGSAAVDILAAQLVYETYLQQNN
For B1, the “ability to reduce PipC2 to convert to PipA (LCMS of enzyme reaction products)” value (“ability to reduce PipC2 to convert” below) [5] was “have the ability to reduce PipC2 to convert to PipA”.

B2: AtP2CR: imino acid reductase derived from Arabidopsis thaliana, SEQ ID NO: 2; GST-fused form SEQ ID NO: 8 (protein, listed as Arabidopsis thaliana)
chain: MAALPVFIPAESFPSILSHETLINHFRTNLPKHSSTITSPVRQNYTVSSPSSLLLMPSWSSSSSLPYMGVKLVTYFPHNSSQNLPGIHGSYTLFSSTTGQTLATMDGTVLTLYRTSSVSGLGSKILARDDSQVLIMVGSGALAPHLIKSHLAARPSLRRVIIWNRTPQRAQELAETLSKDPQHKEISFDSHDSLDQIIPLGDIISCATNSTVPLVKGEFLKPGTHLDLAGSFSHEMKECDDNAIQRGSVFVDNDTAMIEAGELAGAFERGVIKREDICGNLVELIKGDKEGRKSSTDITVFKSVGSGTVDLLTAQLVHETYLSRC
With B2 the “ability to reduce PipC2 to convert” value [5] was “have the ability to reduce PipC2 to convert to PipA”.

B3: LjP2CR: imino acid reductase derived from Lathyrus japonicus, SEQ ID NO: 6; GST-fused form SEQ ID NO: 12 (protein, listed as Lathyrus japonicus)
chain: MASANKDQKTTNTVSSSSSSSSPIFISTENLQTILTHQTLMKHIDSNLPKVSTFLQTPIRQHYSLSPSSSLLLMPSWSSSSSFPYVGVKLVTHFPQNSSINLPGVQGSYVLFNSTTGQTLASMDSTELTLYRTSCVSGLASRYLSRDDSEVLVMVGAGPLAPHLIRAHFSARPSLRKVLIWNRTVEKAEALAKNLRESDEFSLSGLSFEGCGCLNEVVGLGDIVSCATNSEMALVKGERLKVGAHLDLVGSFKPSMKECDDEALKRGKVFVDNEAALVEAGELVGAFERGVIKEDEIEANLVELIRGDKVGRRSSEEITVFKSVGSAVVDMLAAQFVYESYIGK
With B3 the “ability to reduce PipC2 to convert” value [5] was “have the ability to reduce PipC2 to convert to PipA”.
